According to the CheMixHub viscosity set:
“And” between values parts separate entries of the source, which are not always exact repeats. Equal entries are not always repeated.

Legend:
[1] = xn = mol fraction of the nth substance listed

CCC#N
viscosity [mPa·s]
Conditions	298.15 K	303.15 K	308.15 K	313.15 K	318.15 K	323.15 K
101 kPa	0.42	0.41	0.39	0.37	0.36	0.31
101.33 kPa	–	0.3886	–	–	–	–

CCCCCC(=O)[O-].[NH3+]CCO
101 kPa
Conditions	viscosity [mPa·s]
293.15 K	2571
298.15 K	1765
303.15 K	1239
308.15 K	892.2
313.15 K	645.8
318.15 K	477.6
323.15 K	358.5

CCCCCCCCCCCC
Conditions	viscosity
298.15 K, 101 kPa	1.34 mPa·s and 1.338 mPa·s and 1.336 mPa·s
298.15 K, 101.33 kPa	1.324 mPa·s
298.15 K, 103 kPa	1.291 mPa·s
303.15 K, 101.33 kPa	1.215 mPa·s and 1.209 mPa·s
307.52 K, 101.3 kPa	1.159 mPa·s
307.57 K, 101.3 kPa	1.159 mPa·s
308.15 K, 100 kPa	1.115 mPa·s and 1.157 mPa·s
308.15 K, 101 kPa	1.112 mPa·s and 1.125 mPa·s
308.15 K, 103 kPa	1.086 mPa·s
313.15 K, 101 kPa	1.039 mPa·s
313.15 K, 101.33 kPa	1.025 mPa·s
318.15 K, 100 kPa	0.986 mPa·s
318.15 K, 101 kPa	0.935 mPa·s and 0.965 mPa·s
318.15 K, 101.33 kPa	0.935 mPa·s
318.15 K, 103 kPa	0.936 mPa·s
323.15 K, 100 kPa	0.9146 mPa·s and 0.921 mPa·s
323.15 K, 101 kPa	0.898 mPa·s
323.15 K, 102 kPa	0.917 mPa·s (2×) and 0.919 mPa·s

CCCCCCCCCCCC[P+](CC)(CC)CC.N#Cc1ccc[n-]1
100 kPa
Conditions	viscosity
293.15 K	422 mPa·s and 423 mPa·s
298.15 K	296 mPa·s and 310 mPa·s
303.15 K	212 mPa·s and 214 mPa·s
313.15 K	117 mPa·s and 114 mPa·s

CCCCCCCCCCO
Conditions	viscosity
293.15 K, 100 kPa	14.27 mPa·s
293.15 K, 101 kPa	13.04 mPa·s
293.15 K, 101.33 kPa	14.55 mPa·s
298.15 K, 101.33 kPa	11.57 mPa·s
300 K, 101 kPa	10.3 mPa·s
303.15 K, 100 kPa	9.708 mPa·s
303.15 K, 101.3 kPa	8.835 mPa·s
308 K, 101 kPa	7.646 mPa·s
308.15 K, 100 kPa	8.108 mPa·s
308.15 K, 101.3 kPa	8.39 mPa·s
308.15 K, 101.33 kPa	7.918 mPa·s
310 K, 101 kPa	7.09 mPa·s
313 K, 101 kPa	6.396 mPa·s
313.15 K, 100 kPa	6.846 mPa·s
313.15 K, 101 kPa	6.846 mPa·s and 7.929 mPa·s and 6.845 mPa·s
313.15 K, 101.3 kPa	6.955 mPa·s
313.15 K, 101.33 kPa	6.955 mPa·s and 6.955 mPa·s and 6.955 mPa·s
318.15 K, 100 kPa	5.879 mPa·s and 5.771 mPa·s and 5.785 mPa·s
318.15 K, 101.3 kPa	5.878 mPa·s
320 K, 101 kPa	5 mPa·s
323.15 K, 100 kPa	4.918 mPa·s and 4.94 mPa·s

CCOC(=O)OCC
Conditions	viscosity
293.15 K, 101 kPa	0.8024 mPa·s
298.15 K, 101 kPa	0.74 mPa·s and 0.7539 mPa·s
303.15 K, 100 kPa	0.698 mPa·s
303.15 K, 101 kPa	0.701 mPa·s
308.15 K, 100 kPa	0.65 mPa·s
308.15 K, 101 kPa	0.656 mPa·s
313.15 K, 100 kPa	0.622 mPa·s
313.15 K, 101 kPa	0.621 mPa·s
318.15 K, 100 kPa	0.58 mPa·s
318.15 K, 101.3 kPa	0.578 mPa·s
318.15 K, 101.33 kPa	0.578 mPa·s
323.15 K, 100 kPa	0.54 mPa·s
323.15 K, 101 kPa	0.543 mPa·s

CCn1cc[n+](C)c1.F[B-](F)(F)F
viscosity
Conditions	293.15 K	298.15 K	303.15 K	313.15 K	323.15 K
100 kPa	50.54 mPa·s	41.45 mPa·s	34.53 mPa·s	24.83 mPa·s	18.62 mPa·s
101 kPa	–	36.8 mPa·s	28 mPa·s and 28 mPa·s	20.41 mPa·s and 20.41 mPa·s	15.35 mPa·s and 15.35 mPa·s

CN1CCN(C)C1=O
100 kPa
Conditions	viscosity [mPa·s]
293.15 K	2.139
298.15 K	1.945
303.15 K	1.76
308.15 K	1.616
313.15 K	1.491
318.15 K	1.381
323.15 K	1.28

COCCOCCO
viscosity
Conditions	293.15 K	298.15 K	303.15 K	308.15 K	313.15 K	318.15 K	323.15 K
101 kPa	3.906 mPa·s	3.442 mPa·s and 3.574 mPa·s	3.152 mPa·s	2.593 mPa·s	–	2.159 mPa·s	–
101.3 kPa	3.943 mPa·s	–	3.016 mPa·s	–	2.348 mPa·s	–	1.902 mPa·s
101.33 kPa	–	3.565 mPa·s and 3.565 mPa·s	–	2.627 mPa·s and 2.865 mPa·s	–	–	–

Cc1ccc(Cl)cc1
viscosity
Conditions	298.15 K	303.15 K	308.15 K	313.15 K	318.15 K
100 kPa	0.83 mPa·s	0.782 mPa·s	0.724 mPa·s and 0.737 mPa·s	0.682 mPa·s	0.632 mPa·s and 0.662 mPa·s
101 kPa	–	0.782 mPa·s and 0.782 mPa·s	0.728 mPa·s	0.684 mPa·s and 0.682 mPa·s	0.632 mPa·s

Cc1ccccc1C
Conditions	viscosity
293.15 K, 101 kPa	0.7604 mPa·s
293.15 K, 101.33 kPa	0.812 mPa·s
298.15 K, 100 kPa	0.7464 mPa·s
298.15 K, 101 kPa	0.765 mPa·s and 0.761 mPa·s
298.15 K, 101.3 kPa	0.78 mPa·s
298.15 K, 101.33 kPa	0.7587 mPa·s
303.15 K, 101 kPa	0.6725 mPa·s and 0.68 mPa·s and 0.7095 mPa·s
303.15 K, 101.3 kPa	0.7272 mPa·s and 0.7062 mPa·s
303.15 K, 101.32 kPa	0.702 mPa·s
303.15 K, 101.33 kPa	0.757 mPa·s and 0.711 mPa·s
308.15 K, 100 kPa	0.6199 mPa·s
308.15 K, 101 kPa	0.676 mPa·s and 0.656 mPa·s
308.15 K, 101.33 kPa	0.5381 mPa·s and 0.725 mPa·s and 0.659 mPa·s
313.15 K, 101.32 kPa	0.627 mPa·s
313.15 K, 101.33 kPa	0.702 mPa·s
318.15 K, 101.33 kPa	0.682 mPa·s
323.15 K, 101.3 kPa	0.5554 mPa·s

OCCN(CCO)CCO
viscosity
Conditions	293.15 K	298.15 K	303.15 K	313.15 K	323.15 K
100 kPa	935 mPa·s	611 mPa·s	413 mPa·s	–	–
101 kPa	911.7 mPa·s and 795 mPa·s	607 mPa·s	403 mPa·s	201.7 mPa·s	123 mPa·s

OCCOCCOCCO
viscosity
Conditions	293.15 K	298.1 K	298.15 K	308.15 K	313.15 K	318.15 K	323.15 K
100 kPa	42 mPa·s and 48.2 mPa·s and 48.4 mPa·s	–	37.1 mPa·s and 37.8 mPa·s	23.3 mPa·s	19.8 mPa·s	15.4 mPa·s and 15.83 mPa·s and 15.1 mPa·s	13.23 mPa·s
101 kPa	–	37.4 mPa·s	37.1 mPa·s	23.36 mPa·s and 21.2 mPa·s	19.8 mPa·s	15.59 mPa·s and 16.1 mPa·s	–
101.32 kPa	46.1 mPa·s	–	–	–	17.4 mPa·s	–	–

c1ccc(Oc2ccccc2)cc1 + c1ccc(-c2ccccc2)cc1
[1]
Conditions	viscosity [mPa·s]
293.15 K, 101 kPa, x1 = 0.705	4.35
298.15 K, 101 kPa, x1 = 0.705	3.78
298.15 K, 101 kPa, x1 = 0.85	3.71
298.95 K, 101.33 kPa, x1 = 0.715	3.66
303.15 K, 101 kPa, x1 = 0.85	3.32
308.15 K, 101 kPa, x1 = 0.705	2.94
308.15 K, 101 kPa, x1 = 0.85	2.93
309.85 K, 101.33 kPa, x1 = 0.715	2.84
313.15 K, 101 kPa, x1 = 0.55	2.63
313.15 K, 101 kPa, x1 = 0.705	2.61
313.15 K, 101 kPa, x1 = 0.85	2.61
314.15 K, 101.33 kPa, x1 = 0.715	2.57
318.65 K, 101.33 kPa, x1 = 0.715	2.4
321.95 K, 101.33 kPa, x1 = 0.715	2.29
